# Like-named read-outs stand apart in the source and are kept apart here.
# Assays:
# [1] = test system: synthesis of chondroitin sulfate (glycosaminoglycan) in epiphysial cartilages; experiment: Effect on synthesis of chondroitin sulfate (35S labelled glycosaminoglycan) in epiphysial cartilage; assay type: cell-based, chick embryos
# Source text: In each Figure, the vertical axis denotes the amount of ^35 S labelled chondroitin sulfate (^35 S cpm×10^-4 /μmol·uronic acid), and the horizontal axis denotes the concentration (mM) of each xylopyranoside compound in the culture medium, and
# x x: Total uptake amount of ^35 S labelled chondroitin sulfate,
# : Amount of ^35 S labelled chondroitin sulfate in culture medium, and
# : Amount of ^35 S labelled chondroitin sulfate in tissue.
# Epiphysial cartilages were taken from chick embryos aged 12 days in the Tyrode's medium under ice-cooling, and excess tissues were removed therefrom. To 150 mg of cartilages corresponding to five embryos, 5 ml of BGJb [an entirely synthetic culture medium prepared according to a recipe of GIBCO (Grand Island Biological Company)] was added, followed by pre-incubation at a temperature of 37° C. After replacing the culture medium, further 1 ml of BGJb and 5μCi Na2^35 SO4 were added, and the culture system was kept at 37° C. for 3 hours. The culture medium was then replaced by a fresh chase medium containing no isotope. After keeping the culture system at 37° C. for 1 hour, the culture medium was separated from the tissues. To study the effects of the xyloside compound on the synthesis of glycosaminoglycan, the xyloside compound was added in the predetermined concentration to the pre-incubation and incubation media.
# After the incubation, the labeled medium containing Na2^35 SO4 was combined with the chase medium. Pronase-P was added thereto in a 0.5 M tris-HCl buffer solution (pH 8.0), and the resulting mixture was digested at 50° C. for 16 hours. The digested reaction mixture was then subjected to gel filtration through a column (1.5×14 cm) packed with Bio-Gel P-2 (available from Bio-Rad Company) using a 0.2 M ammonium formate solution as elute. In this way, the Vo fraction was collected and was then freeze-dried to give crude glycosaminoglycan.
# On the other hand, ice-cooled 4 M guanidine hydrochloride was added to the tissues which were previously separated from the culture medium. The resulting mixture was left to stand overnight at a temperature of -20° C., and then homogenized. The obtained homogenate was left to stand overnight at room temperature and centrifuged at a speed of 8,500 rpm to obtain a supernatant. To the obtained liquid, water was added in an amount threefold that of the supernatant. Then, a 95% ethyl alcohol (containing 1.3% of potassium acetate) was added to the resulting mixture in an amount threefold that of the mixture to obtain a precipitate. This procedure was repeated twice, and the combined precipitates were dried in a desiccator. The obtained precipitates were dissolved in a 0.02 M tris-HCl buffer solution (pH 8.0) and digested with Pronase-P (trade name) (available from Kaken Kagaku Co., Ltd.) in the manner similar to the culture medium described above, thereby obtaining crude glycosaminoglycan.
# As the xyloside compound, conventional O-paranitrophenyl-β-D-xylopyranoside, and two compounds according to the present invention viz. C-n-butyl-β-D-xylopyranoside and C-ethyl-β-D-xylopyranoside were used. The effects of these xyloside compounds on the total amount of ^35 S labelled glycosaminoglycan synthesized (^35 S uptake amount), the amount thereof liberated to the culture medium and the amount thereof remaining in the tissues were as shown in FIGS. 1 to 3.
# Sarcoma-180 = experiment: Activity against a transplantable cancer, Sarcoma-180; assay type: in vivo, ICR-JCL mice; settings: 100 mg/Kg ip once a day for 10 days, starting 24 hrs. after inoculation
# Description: Sarcoma-180 cells (1×10^6 cells) were inoculated subcutaneously into the back skin of each of ICR-JCL mice.
# Chemotherapy was given intraperitoneally 24 hrs. after inoculation and performed once a day for 10 days. Each specimen to be administered was prepared by dissolving or suspending 30 mg of each compound according to this invention in 1 ml of a pysiological saline or in 1 ml of a 0.2% solution of carboxymethylcellulose in a physiological saline, respectively.
# All the solutions and the suspensions thus prepared were injected at a volume of 0.1 ml as a single dose (100 mg/Kg).
# The inhibition ratio (%) was calculated according to the following equation: […]
# wherein T represents the mean weight of the tumor Sarcoma-180 in a tested group of mice; and C represents the mean weight of the tumor in a control group of mice.
# [2] = Acute toxicity by oral or intraperitoneal administration to ddY mice; settings: mouse, in vivo, 7 days, Litchfield-Wilcoxon
# Description: The acute toxicity of the compound according to this invention was determined by forced oral or intraperitoneal administration thereof to ddY mice.
# To prepare each specimen to be administered, a predetermined amount of each compound shown in Table 1 was dissolved in a physiological saline or suspended in a 0.2% solution of carboxymethylcellulose in a physiological saline. Each specimen was administered orally to a ddY mouse via its stomach tube or injected intraperitoneally.
# [3] = ip, intraperitoneal, read-out: LD50 (ip)
smiles,measurement,setting,value
O=[N+]([O-])c1ccc(O[C@@H]2OC[C@@H](O)[C@H](O)[C@H]2O)cc1 [O-paranitrophenyl-β-D-xylopyranoside],Effectiveness as initiator for the synthesis of chondroitin sulfate,[1],extremely effective
same,35S uptake of glycosaminoglycan,[1]; 1 mM,"40,800 count per minute (cpm)"
same,activity at 1000 µM,"[1]; Gallus gallus, 1 mM, read-out: 35S labelled glycosaminoglycan liberated to the culture medium",95%
same,fold induction at 1000 µM,"[1]; Gallus gallus, 1 mM, read-out: 35S uptake of glycosaminoglycan relative to control",2.35
same,activity at 1000 µM,"[1]; Gallus gallus, 1 mM, read-out: Amount of 35S labelled glycosaminoglycan remaining in the tissues",11%
same,"35S uptake of glycosaminoglycan, concentration dependence",[1]; concentration rising from 0.05 mM to 1.0 mM,increased
"CCCC[C@@H]1OC[C@@H](O)[C@H](O)[C@H]1O [C--n-Butyl-β-D-xylopyranoside, C-n-Butyl-β-D-xylopyranoside]","I.R. (inhibition ratio, tumor weight)",Sarcoma-180,69.2%
same,LD50 at 168 h,[2]; [3],2400 mg/kg
same,LD50 at 168 h,"[2]; oral, read-out: LD50 (po)",5800 mg/kg
"CC[C@@H]1OC[C@@H](O)[C@H](O)[C@H]1O [C--Ethyl-β-D-xylopyranoside, C-Ethyl-β-D-xylopyranoside]","I.R. (inhibition ratio, tumor weight)",Sarcoma-180,52.8%
same,LD50 at 168 h,[2]; [3],2400 mg/kg
same,LD50 at 168 h,"[2]; oral, read-out: LD50 (po)",6900 mg/kg

# — patent US4446312A, “C-β-D-Xylopyranoside series compounds” (Seikagaku Kogyo Co., Ltd., priority 1980, dated 1984)
